Assay results: US20050003509A1, “Method for modulating C.albicans” (priority 2003, published 2005)

Experiments:
[1] = test system: C.albicans; assay: growth on YNB medium with lysine as sole nitrogen source; format: cell-based; details: 0, 0.1, 1 and 3 mM lysine
Method: Cells were then grown on YNB medium, containing varying concentrations of lysine (0, 0.1, 1 and 3 mM), as sole nitrogen source. A striking gene dosage effect was observed. As expected, none of the strains were able to grow in the absence of lysine, whereas they grew weakly when 0.1 mM lysine was present, showing the C.albicans can metabolize lysine. […] The heterozygous strains have balanced the opposing activities.

[2] = test system: C.albicans; assay: induction of morphological transition (hyphae) in buffer; format: cell-based; details: 10 mM proline or 2.5 mM Glc-Nac in 10 mM MES pH 6.4, 12 hours, 37° C.
Method: To test this, stains were grown in YPD, as described supra, washed, and were resuspended in buffer at an OD600 of 1, or buffer (10 MM MES, pH 6.4) containing either 10 mM proline, or 2.5 mM Glc-Nac. The suspensions were incubated for 12 hours, at 37° C., after which the suspensions were examined microscopically.

[3] = test system: S.cervesiae strain FGY145; assay: growth of transformed shr3Δ6 S.cervesiae strain FGY145 with toxic amino acids; format: cell-based, S.cerevisiae; details: 30° C., six days
Method: Standard culture conditions and media for S.cervesiae and C.albicans have been described by Sherman, in Guthrie, ed. Guide to Yeast Genetics And Molecular Biology (Academic Press, 1991), pp. 3-21, incorporated by reference. To elaborate, Ura^− strains of C.albicans were grown in standard media, supplemented with 25 μg/ml of uridine. Tests on S.cerevisiae were carried out in SD medium supplemented with histidine, as well as various toxic amino acid analogs, i.e., L-canaranine (1 μg/ml), L-azetidine-2-carboxylate (500 μg/ml), B-chloro-D, L-alanine (100 μg/ml), p-fluoro-D, L-phenylalanine (400 μg/ml), D, L-ethionine (300 μg/ml), and 2-aminoethyl-L-cysteine (225 μg/ml). Ljungdahl, et al., Cell, 71:463-478 (1992), was followed to produce SPD and SPD containing 30 mM histidine.
Cell suspension of shr3Δ6 S.cervesiae strain FGY145 described by Gilstring, et al., Mol. Cell Biol., 10:3549-3565 (1999), were transformed with either control plasma pRS316, pPL210, which encodes SHR3 and is described by Ljungdahl, et al., supra, or pPM20, which encodes CSH3, and is described supra. The transformants were spotted on the described SD media, and grown in the presence of the toxic amino acids described supra. Suspensions of the cells were also grown on SPD, and SPD containing 30 mM histidine. […]

**Q.** NCCCC[C@H](N)C(=O)O [lysine] was tested. Which “growth with increasing lysine concentration” value ([1]; CSH3/CSH3 (+/+) strain) did it give?
**A.** decrease at concentrations above 1 mM

**Q.** What about the “growth with increasing lysine concentration” value ([1]; heterozygous strains) of the same compound?
**A.** robust growth at concentrations greater than 1 mM

**Q.** And the “growth with increasing lysine concentration” value ([1]; homozygous null mutant)?
**A.** improved noticeably

**Q.** How did the hyphal development ([2]; (+/+) wild type) turn out when O=C(O)[C@@H]1CCCN1 [proline] was run?
**A.** developed hyphae readily

**Q.** What about the hyphal development ([2]; (−/−) cells) of the same compound?
**A.** only a few cells with short germ tubules

**Q.** Which growth sensitivity ([3]; transformants carrying SHR3 (CSH3 transformants indistinguishable)) does the source give for N[C@@H](Cc1c[nH]cn1)C(=O)O [histidine] here?
**A.** sensitive

**Q.** What about the growth sensitivity ([3]; transformants with control plasmid pRS316) of the same compound?
**A.** resistant

**Q.** Which hyphal development ([2]; (+/+) wild type) does the source give for CC(=O)N[C@H]1C(O)O[C@H](CO)[C@@H](O)[C@@H]1O (stereo partly drawn) [Glc-Nac, N-acetyl glucosamine] here?
**A.** extensive hyphal development

**Q.** And the hyphal development ([2]; (−/−) cells)?
**A.** extensive hyphal development
